What was measured:
[1] = target: T1, Fatty acid-binding protein, adipocyte (Mus musculus) (UniProt P04117); assay: Inhibition of FABP4 in mouse RAW264.7 cells assessed as inhibition of LPS-induced TNFalpha production after 24 hrs by ELISA; assay type: cell-based
T1 sequence (whole entry): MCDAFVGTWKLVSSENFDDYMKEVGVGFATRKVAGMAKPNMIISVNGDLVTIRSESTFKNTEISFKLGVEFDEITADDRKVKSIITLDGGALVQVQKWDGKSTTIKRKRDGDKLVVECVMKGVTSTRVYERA

[2] = target: T1, Fatty acid-binding protein, adipocyte (Mus musculus); assay: Inhibition of FABP4 in mouse RAW264.7 cells assessed as inhibition of LPS-induced TNFalpha expression after 24 hrs by qPCR method; assay type: cell-based
[3] = target: T1, Fatty acid-binding protein, adipocyte (Mus musculus); assay: Inhibition of FABP4 in mouse RAW264.7 cells assessed as inhibition of LPS-induced IL-6 expression after 24 hrs by qPCR method; assay type: cell-based
[4] = target: T2, Fatty acid-binding protein, liver (Homo sapiens) (UniProt P07148); assay: Displacement of 1,8-ANS from His6-tagged FABP1 (unknown origin) expressed in Escherichia coli BL21(DE3) cells at 25 uM by fluorescence assay relative to control
T2 sequence (whole entry): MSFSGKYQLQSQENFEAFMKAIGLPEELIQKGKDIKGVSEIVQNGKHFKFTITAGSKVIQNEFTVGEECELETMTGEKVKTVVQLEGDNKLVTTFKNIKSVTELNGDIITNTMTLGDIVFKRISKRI

[5] = target: T3, Fatty acid-binding protein, intestinal (Homo sapiens) (UniProt P12104); assay: Displacement of 1,8-ANS from His6-tagged FABP2 (unknown origin) expressed in Escherichia coli BL21(DE3) cells at 25 uM by fluorescence assay relative to control
T3 sequence (whole entry): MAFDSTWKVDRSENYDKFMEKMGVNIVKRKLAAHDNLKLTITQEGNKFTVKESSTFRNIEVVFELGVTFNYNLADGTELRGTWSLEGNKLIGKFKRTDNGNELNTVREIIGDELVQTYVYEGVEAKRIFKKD

[6] = target: Fatty acid-binding protein 5 (Homo sapiens) (UniProt Q01469); assay: Displacement of 1,8-ANS from His6-tagged FABP5 (unknown origin) expressed in Escherichia coli BL21(DE3) cells at 25 uM by fluorescence assay relative to control
Fatty acid-binding protein 5 (Homo sapiens), sequence (Q01469 whole entry): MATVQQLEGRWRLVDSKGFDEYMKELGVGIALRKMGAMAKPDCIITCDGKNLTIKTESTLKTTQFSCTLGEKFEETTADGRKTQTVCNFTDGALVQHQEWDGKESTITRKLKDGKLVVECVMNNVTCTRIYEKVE

[7] = target: Fatty acid-binding protein, brain (Homo sapiens) (UniProt O15540); assay: Displacement of 1,8-ANS from His6-tagged FABP7 (unknown origin) expressed in Escherichia coli BL21(DE3) cells at 25 uM by fluorescence assay relative to control
Fatty acid-binding protein, brain (Homo sapiens), sequence (O15540 2-132 limits assumed): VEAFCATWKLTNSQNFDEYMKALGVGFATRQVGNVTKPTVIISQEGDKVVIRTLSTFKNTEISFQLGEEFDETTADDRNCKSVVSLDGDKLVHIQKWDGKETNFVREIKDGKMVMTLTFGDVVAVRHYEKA

[8] = target: Myelin P2 protein (Homo sapiens) (UniProt P02689); assay: Displacement of 1,8-ANS from His6-tagged FABP8 (unknown origin) expressed in Escherichia coli BL21(DE3) cells at 25 uM by fluorescence assay relative to control
Myelin P2 protein (Homo sapiens), sequence (P02689 whole entry, looked up): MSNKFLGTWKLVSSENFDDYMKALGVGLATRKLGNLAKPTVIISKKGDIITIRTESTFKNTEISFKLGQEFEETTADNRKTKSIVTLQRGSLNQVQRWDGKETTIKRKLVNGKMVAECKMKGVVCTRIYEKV

[9] = target: T4, Fatty acid-binding protein 9 (Homo sapiens) (UniProt Q0Z7S8); assay: Displacement of 1,8-ANS from His6-tagged FABP9 (unknown origin) expressed in Escherichia coli BL21(DE3) cells at 25 uM by fluorescence assay relative to control
T4 sequence (whole entry): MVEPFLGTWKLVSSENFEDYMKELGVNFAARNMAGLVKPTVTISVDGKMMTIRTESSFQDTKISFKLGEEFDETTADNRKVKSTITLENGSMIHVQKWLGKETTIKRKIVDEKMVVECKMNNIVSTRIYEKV

[10] = target: T5, Fatty acid-binding protein, heart (Homo sapiens, UniProt P05413); assay: Displacement of 1,8-ANS from His6-tagged FABP3 (unknown origin) expressed in Escherichia coli BL21(DE3) cells by fluorescence assay; conditions: read-out: Ki(app)
Target sequence in this assay (P05413 whole entry): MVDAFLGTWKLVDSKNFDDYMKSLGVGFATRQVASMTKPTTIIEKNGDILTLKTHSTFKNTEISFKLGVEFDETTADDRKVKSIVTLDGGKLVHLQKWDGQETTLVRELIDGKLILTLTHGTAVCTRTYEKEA

[11] = species: Homo sapiens; assay: Displacement of 1,8-ANS from His6-tagged FABP4 (unknown origin) R106A mutant expressed in Escherichia coli BL21(DE3) cells at 25 uM by fluorescence assay relative to control
[12] = species: Homo sapiens; assay: Displacement of 1,8-ANS from His6-tagged FABP4 (unknown origin) R126A mutant expressed in Escherichia coli BL21(DE3) cells at 25 uM by fluorescence assay relative to control
[13] = target: T6, Fatty acid-binding protein, adipocyte (Homo sapiens, UniProt P15090); assay: Displacement of 1,8-ANS from His6-tagged FABP4 (unknown origin) expressed in Escherichia coli BL21(DE3) cells at 25 uM by fluorescence assay relative to control
Target sequence in this assay (P15090 2-132 limits assumed): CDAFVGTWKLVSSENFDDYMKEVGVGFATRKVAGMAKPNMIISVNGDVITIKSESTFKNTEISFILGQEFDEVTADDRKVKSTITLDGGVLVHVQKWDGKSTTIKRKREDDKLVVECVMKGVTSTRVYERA

[14] = target: T6, Fatty acid-binding protein, adipocyte; assay: Displacement of 1,8-ANS from His6-tagged FABP4 (unknown origin) expressed in Escherichia coli BL21(DE3) cells by fluorescence assay; conditions: read-out: Ki(app)
Target sequence in this assay (P15090 whole entry): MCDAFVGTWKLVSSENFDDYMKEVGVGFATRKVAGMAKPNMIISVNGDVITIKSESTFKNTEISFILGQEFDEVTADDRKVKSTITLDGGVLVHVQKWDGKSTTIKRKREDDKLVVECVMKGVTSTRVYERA

[15] = target: T6, Fatty acid-binding protein, adipocyte; assay: Binding affinity to His6-tagged FABP4 (unknown origin) expressed in Escherichia coli BL21(DE3) cells assessed as change in melting temperature at 50 uM after 30 mins by SYPRO orange dye based thermal stability shift assay
Target sequence in this assay (P15090 2-132 limits assumed): as the sequence (P15090 2-132 limits assumed) above

[16] = target: T6, Fatty acid-binding protein, adipocyte; assay: Direct binding to His6-tagged FABP4 (unknown origin) expressed in Escherichia coli BL21(DE3) cells by isothermal titration calorimetry
Target sequence in this assay (P15090 whole entry): as the sequence (P15090 whole entry) above

[17] = target: T5, Fatty acid-binding protein, heart; conditions: 25 uM
Target sequence in this assay (P05413 2-133 limits assumed): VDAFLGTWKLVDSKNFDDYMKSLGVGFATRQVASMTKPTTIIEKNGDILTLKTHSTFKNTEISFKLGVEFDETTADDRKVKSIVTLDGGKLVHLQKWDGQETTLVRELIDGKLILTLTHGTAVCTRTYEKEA
Description: Displacement of 1,8-ANS from His6-tagged FABP3 (unknown origin) expressed in Escherichia coli BL21(DE3) cells at 25 uM by fluorescence assay relative to control

[18] = target: T5, Fatty acid-binding protein, heart; conditions: 50 uM
Target sequence in this assay (P05413 2-133 limits assumed): as above
Description: Binding affinity to His6-tagged FABP3 (unknown origin) expressed in Escherichia coli BL21(DE3) cells assessed as change in melting temperature at 50 uM after 30 mins by SYPRO orange dye based thermal stability shift assay

In the case of `O=C(O)C1C2CC=CC2c2cc(Br)cc3c2N1CC1CC=CC31` (stereo not drawn), the inhibition [1] is reported as “Dose-dependent effect”, the inhibition [2] is reported as “Dose-dependent effect” and the inhibition [3] is reported as “Dose-dependent effect”. The inhibition [4] was 95.5%, the inhibition [5] was 34.1% and the inhibition [6] was 77.7%. It also gave an inhibition [7] of 58.5%, an inhibition [8] of 68.4% and an inhibition [9] of 64%. It also gave a Ki [10] of 1300 nM, an inhibition [11] of 27% and an inhibition [12] of 54.7%. The inhibition [13] was 95.1%, the Ki [14] was 290 nM and the ΔTm [15] was 8.5 °C. The Kd [16] was 2650 nM, the inhibition [17] was 63.1% and the ΔTm [18] was 4 °C.

Source: ChEMBL document CHEMBL3826919, “The discovery of novel and selective fatty acid binding protein 4 inhibitors by virtual screening and biological evaluation” (Bioorg Med Chem, 2016)
